# Laboratory results from US9457101B2, “Hydrogels for delivery of therapeutic polypeptides” (priority 2012, dated 2016).
# Where two headings read alike, the source gives them in different places.
# Assays:
# [1] = test system: blood vessels per area formed in the hydrogel; assay: Mouse angiogenesis model, subcutaneous hydrogel implants; type: in vivo, mice; conditions: GM6001 intraperitoneally 0.1 mg/g once daily for two weeks
# Excerpt: PEGDA:GSH hydrogel is loaded with one or more GST-polypeptide fusions having a cleavage site for matrix metalloprotease-9 between GST and the polypeptide. Matrix metalloprotease-9 (MMP-9) recognizes the cleavage site having the amino acid sequence […] (SEQ ID NO:5). The loaded hydrogel is implanted in a mouse angiogenesis model to assess the bioactivity of the released polypeptides. Particularly, the polypeptides eGFP (i.e., Green Fluorescent Protein), mCherry (Red Fluorescent Protein), and a cell lytic polypeptide having the amino acid sequence […] (SEQ ID NO:3) are examined in this angiogenesis model.
# Specifically, mice are administered an intraperitoneal injection of ketamine and xylazine (100 mg/kg and 5 mg/kg, respectively), and an injection site is rubbed with 75% ethanol. Anesthesia is indicated by a toe pinch reflex test. All instruments are autoclaved prior to use and standard aseptic technique is followed for the procedure as detailed below. […]
# After 14 days, the inserted hydrogels are removed for whole mount immunostaining to determine the number of blood vessels per area formed in the hydrogel. […] Particularly, after one-hour of blocking, the hydrogel is incubated with anti-CD31 antibody overnight at 4 degrees Celsius to allow for fluorescence imaging of the endothelium formed about and/or within the hydrogel. […]
# [2] = molecular target: glutathione s-transferase; conditions: read-out: dissociation constant of glutathione from glutathione s-transferase; cited from earlier work
# S. pyogenes = assay: Bacterial growth inhibition by free proteins (A600); type: cell-based; conditions: 10 μM, at 5 hours
# Protocol: Bacterial Growth Inhibition. Following digestion with thrombin as described above, GSH-agarose beads (GoldBio, St. Louis, Mo.) were used to separate GST from recombinant melittin. Synthetic melittin and GST-6xHis-melittin underwent a similar process without thrombin or being subjected to GSH-agarose treatment. Overnight cultures of S. pyogenes (ATCC, Manassas, Va., BAA-1633) cells were diluted in chemically defined medium were diluted to approximately 10^8 colony forming units (CFUs), corresponding to an absorbance at 600 nm (A600) of 0.1, and 150 μL distributed into 96-well, optical-bottom plates (Greiner BioOne, Frickenhausen, Germany) for treatment. GST-6xHis-melittin, recombinant melittin, or synthetic melittin (10 μM) were then added and the plate was incubated at 37° C. with shaking using a Biotek Synergy 2 plate reader (Winooski, Vt.). Absorbance (A600) measurements were obtained every ten minutes for 12 hours.
# U-87 MG cells = assay: Tumor cell growth inhibition (MTS assay); type: cell-based; conditions: 10 μM protein (thrombin 2 U), fusion without thrombin
# Protocol: Tumor Cell Growth Inhibition. All proteins were incubated with thrombin at 37° C. for two hours prior to cellular assays. Malignant glioma cells, U-87 MG, (ATCC, Manassas, Va., 3,000 cells/cm^2) were seeded in a 96 well plate together with appropriate treatments in 100 μL DMEM and 10% FCS (Sigma-Aldrich, St. Louis, Mo.). Treatments included a cell only control (untreated), thrombin (2 U), GST (10 μM), GST-6xHis-melittin (10 μM), GST-6xHis-melittin (10 μM) simultaneously with thrombin (2 U), or synthetic melittin (10 μM; GenScript RP20415, Sigma-Aldrich, St. Louis, Mo.). The cells with their respective treatments were incubated at 37° C. in 5% CO2 overnight, approximately 16 hours. The MTS assay (Promega, Madison, Wis., CellTitre96) was performed according to the manufacturer recommendation and incubated for two hours before reading absorbance at 495 nm on a Labsystems Multiskan plus plate reader (Thermo Scientific, Hanover Park, Ill.).
# [3] = below 1 mM GSH, after 6 days
# Protocol: Protein Release. GSH mediated release studies were carried out over 6 days. Protein release was measured from 10,000 to 20,000 microspheres into 500 μL PBS in the presence and absence of glutathione. Release was measured with three independent replicates per experimental group. […] Therefore, at each 24-hour time point, glutathione containing buffers were completely replaced. The buffer that was removed was frozen for later analysis. At the completion of the experiment, all frozen samples were thawed and 50 μL of each samples were diluted in PBS and read on a Quantech fluorometer.
# thrombin = assay: Kinetics of thrombin cleavage of GST-GFP (SDS-PAGE densitometry); type: biochemical; conditions: for Km: read-out: Michaelis-Menten constant (Km) of thrombin to GST-GFP
# Protocol: Reaction kinetics were measured by semi-quantitative densitometry of SDS-PAGE gels. Reactions with equivalent concentrations of GST-GFP substrate and varying concentrations of thrombin (0.1, 0.33, 0.75, 1.5, and 3 μM) were incubated at 37° C. for varying amounts of time. In groups where cleavage from microspheres was reported, approximately 10,000 microspheres were used. Reactions were stopped by addition of Laemmli sample buffer (containing SDS) and stored at 4° C. until run on SDS-PAGE. All gels were run with known concentrations of BSA standards. Density measurements were made with NIH imageJ software with gel backgrounds normalized. Each thrombin concentration was run one time, except for […], which was ran in biological triplicate.
molecule,measurement,setting,value
CNC(=O)[C@H](Cc1c[nH]c2ccccc12)NC(=O)[C@@H](CC(=O)NO)CC(C)C [GM6001],vessel growth in the hydrogel,[1],limited vessel growth
N[C@@H](CCC(=O)N[C@@H](CS)C(=O)NCC(=O)O)C(=O)O [glutathione],Kd,[2],22 µM
"CC[C@H](C)[C@H](NC(=O)CN)C(=O)NCC(=O)N[C@@H](C)C(=O)N[C@H](C(=O)N[C@@H](CC(C)C)C(=O)N[C@@H](CCCCN)C(=O)N[C@H](C(=O)N[C@@H](CC(C)C)C(=O)N[C@H](C(=O)N[C@H](C(=O)NCC(=O)N[C@@H](CC(C)C)C(=O)N1CCC[C@H]1C(=O)N[C@@H](C)C(=O)N[C@@H](CC(C)C)C(=O)N[C@H](C(=O)N[C@@H](CO)C(=O)N[C@@H](Cc1c[nH]c2ccccc12)C(=O)N[C@H](C(=O)N[C@@H](CCCCN)C(=O)N[C@@H](CCCNC(=N)N)C(=O)N[C@@H](CCCCN)C(=O)N[C@@H](CCCNC(=N)N)C(=O)N[C@@H](CCC(N)=O)C(=O)N[C@@H](CCC(N)=O)C(N)=O)[C@@H](C)CC)[C@@H](C)CC)[C@@H](C)O)[C@@H](C)O)C(C)C)C(C)C [synthetic melittin, melittin, reference compound]",growth of S. pyogenes,S. pyogenes,almost completely inhibited the growth
same,survival of U-87 MG cells,U-87 MG cells,15%
GST-GFP,protein remaining associated with the particles,[3],more than 80%
same,apparent Vmax of thrombin mediated release,thrombin,0.13 µg/min
same,Km,thrombin; GST-GFP in association with PEGDA-GSH microspheres,~0.3 µM
same,Km,thrombin; free GST-GFP,~0.18 µM
recombinant melittin: melittin cleaved by thrombin from purified recombinant GST-6xHis-melittin,growth of S. pyogenes,S. pyogenes,almost completely inhibited the growth
